Test results taken from US20030044861A1, “Method for diagnosing neoplasia” (priority 1998, published 2003).

How the values were obtained:
HCT116, Colon = test: Growth inhibition of HCT116 cells; assay type: cell-based; details: Homo sapiens, HCT-116
Protocol: (§1) Briefly, suspected neoplastic tissue samples are removed from a patient and grown as explants in vitro. The tissue samples are grown in the presence and absence of a cGMP-specific PDE inhibitor. After being grown in culture, cells are fixed by the addition of cold trichloroacetic acid. Protein levels are measured using the sulforhodamine B (SRB) colorimetric protein stain assay as previously described by Skehan, P., Storeng, R., Scudiero, D., Monks, A., McMahon, J., Vistica, D., Warren, J. T., Bokesch, H., Kenney, S., and Boyd, M. R., “New Colorimetric Assay For Anticancer-Drug Screening,” J. Natl. Cancer Inst. 82: 1107-1112, 1990, which is incorporated herein by reference.
(§2) To show the effectiveness of cGMP-specific PDE inhibition on various forms of neoplasia, (and, therefore, the usefulness of the diagnostic methods of this invention) cGMP-specific PDE inhibitors were tested on a number of neoplastic cell lines. […] Exisulind is defined as (Z)-5-fluoro-2-methyl-1-[[4-(methylsulfonyl)phenyl]methylene]indene-3-yl acetic acid or a salt thereof. The IC50 values were determined by the SRB assay.

A-427, Lung = test: Growth inhibition of A-427 cells; assay type: cell-based; details: Homo sapiens
Protocol: as §1, §2

HT-29 cells = test: Apoptosis and necrosis by morphology (acridine orange/ethidium bromide); assay type: cell-based; details: HT-29 cells treated for six days
Protocol: In one type of apoptosis assay, suspected neoplastic cells are removed from a patient. The cells are then grown in culture in the presence or absence of a cGMP-specific PDE inhibitor. Apoptotic cells are measured by combining both the attached and “floating” compartments of the cultures. The protocol for treating tumor cell cultures with PDE inhibitors and related compounds to obtain a significant amount of apoptosis has been described in the literature. (See, Piazza, G. A., et al., Cancer Research, 55:3110-16, 1995, which is incorporated herein by reference). The novel features of this assay include collecting both floating and attached cells, identification of the optimal treatment times and dose range for observing apoptosis, and identification of optimal cell culture conditions.
Following treatment of neoplastic and normal cells with a test compound, cultures can be assayed for apoptosis and necrosis by fluorescent microscopy following labeling with acridine orange and ethidium bromide. The method for measuring apoptotic cell number has previously been described by Duke & Cohen, “Morphological And Biochemical Assays Of Apoptosis,” Current Protocols In Immunology, Coligan et al., eds. 3.17.1-3.17.16 (1992, which is incorporated herein by reference).
For example, floating and attached cells are collected, and aliquots of cells are centrifuged. The cell pellet is then resuspended in media and a dye mixture containing acridine orange and ethidium bromide. The mixture is then examined microscopically for morphological features of apoptosis.
Apoptotic and necrotic cell death was determined as previously described (Duke and Cohen, In: Current Protocols in Immunology, 3.17.1-3.17.16, New York, John Wiley and Sons, 1992). […] All data were collected from the same experiment.
The diagnostic method of this invention is used to determine whether a particular neoplasia is sensitive to treatment with a cGMP-specific PDE inhibitor. The apoptosis inducing activity for a series of phosphodiesterase inhibitors, specific for different PDEs, was determined. HT-29 cells were treated for 6 days with various inhibitors of phosphodiesterase. Apoptosis and necrosis were determined morphologically after acridine orange and ethidium bromide labeling in accordance with the assay described, supra.

[1] = biological target: T1, PDE peak A (PDE5) from SW-480 cells (Homo sapiens, UniProt O76074); test: cGMP hydrolysis by PDE peak A; assay type: biochemical
T1 construct: SW-480 cells are collected and homogenized; The homogenate is centrifuged, and the supernatant is loaded onto a DEAE-Trisacryl M column; endogenous in cells; host or cells: SW-480 human colon carcinoma cells, DEAE-Trisacryl M fraction peak A

[2] = test system: PDE peak B (novel cGMP-specific PDE) from SW-480 cells; test: cGMP hydrolysis by PDE peak B; assay type: biochemical, human
neoplastic cells = test: Apoptosis induction and growth inhibition in neoplastic cells (words only); assay type: cell-based

## CSc1ccc(/C=C2/C(C)=C(CC(=O)O)c3cc(F)ccc32)cc1 [Sulindac sulfide]
HCT116, Colon
  IC50: 45 µM
A-427, Lung
  IC50: 90 µM
HT-29 cells
  Apoptotic and necrotic cell death (FIG. 1, in words): capable of causing apoptotic cell death without inducing neoplastic cell necrosis
[1]
  Mode of inhibition of cGMP hydrolysis, peak A: competitively inhibit
[2]
  Mode of inhibition of cGMP hydrolysis, peak B: competitively inhibit
Neoplastic cells
  Apoptosis induction in neoplastic cells (in words): induce apoptosis in neoplastic cells
  Growth inhibition of neoplastic cells (in words): precisely the opposite
